We go through 1 molecule from US20040029208A1, “Assay method and kit for testing biological material for exposure to stress using biomarkers” (priority 2000, published 2004).

Each structure is given as a SMILES string.

What all share (type): in vivo
Assay [1] deals with Anagallis arvensis. Description: TLC plant biomarker pattern after herbicide spraying (greenhouse). The protocol: (§1) The experiments were performed in the green-house at the National Environmental Research Institute, Silkeborg, Denmark. All the seeds needed light to germinate, and were sown at the soil surface in individual 11 cm pots. The soil used during the experiments contained: (SM Growing Mould (Growing medium by special soil (sphagnum) added clay granulate), 0-30 mm; grade of turnover 55-75; added per m^3: 3 kg lime (white chalk), 1.5 kg dolit chalk, 40 kg clay granulate; Fertilizer added granulate: NO3-N: 55.0 g; NH4-N: 65.0 g; P: 106.6 g; K: 224.0 g; Mg: 22 g; Micro nutrients added in chelate form, Mo in uorganic form: B-Boron: 1 g; Cu-copper: 6 g; Mn-Manganese: 3 g; Zinc-Zn: 3 g: Fe-iron: 6 g; Mo- molybdenum: 1.4 g).
(§2) During the experiments plants were watered from below, and the temperature in the green-house was maintained between 15° C. and 25° C. with variations due to external weather, and the photoperiod was 16th daylight. The green-house is divided into different units, which allowed for the separate maintenance of the control plants from the sprayed plants to avoid undesirable effects due to vapour drift.
(§3) Glyphosate (Roundup Bio (360 g L^−1) was supplied by Monsanto Denmark A/S. Recommended field dose=1,44 kg a.i. ha^−1. In all the experiments, an automatic sprayer (designed in Denmark by Jens Kristensen 1994) was used where the herbicide application is achieved by moving boom equipment with two ordinary hydraulic flat fan nozzles (Hardi 4110-16). Two pots per spray event were placed in the middle of the spray chamber at 50 cm distance from the nozzle, delivering 200 L of water per-hectare with a desired herbicide concentration (working pressure 2 bars; speed of spray boom=4.7 km h^−1). The spraying was performed starting with the lowest concentration first, progressing towards the highest concentration. Between each herbicide, the sprayer was thoroughly rinsed several times with water. The control plants were sprayed with water.
(§4) The fresh plant material was pressed using a hand press. The extract was immediately centrifuged. (3000 rpm) for 10 minutes. The supernatant was used for analysis. The extracts were kept cool or right above 0° C. during the test to avoid decomposition of biomarkers.
(§5) Freeze-dried plant material was crushed and 250 mg was extracted with 5.00 ml 75% ethanol in an ultrasonic bath for 2 hours. The temperature was kept <0° C. (using ice) during the extraction to avoid decomposition of biomarkers. The extract was centrifuged (3000 rpm) for 10 minutes. The supematant was used for analysis and were kept cool during the test to avoid decomposition of biomarkers.
(§6) The two extracts (freshtfresh ethanol) were applicated immediately on a TLC plate (10 μl on both TLC-Plate types (see below) using cool air-drying. The 75% ethanolic extract was applicated 10 μl on Silica-gel TLC-plates and 5 μl on Cellulose TLC-plates (see below). The fresh/fresh ethanolic extractsare recommended to perform if fresh plant material are to be analysed (field-test). The freeze-dried or frozen plant material extraction Is recommended if the analysis are performed in the laboratory.
[…] Derivatisation: Stock solution 1:50% sulfuric acid in 96% ethanol; Stock solution 2: 2% vanillin in absolut alcohol; Derivatisation-solvent, Fresh produced before us, stock solution 1 and stock solution 2 (1:10); Aftercare: 120° C. in 2-3 min. The plate is valuated visually. The system detects higher alcoholics, phenolic compounds, steroids and etheric oils (Stahl 1969), terpenoids, phenyl propanolds, phenolic compounds (Wagner etea. 1984)
TLC-System 7: HPTLC-Alufolie Silica Gel 60 F2u, Merck 1.05548 (10×10 cm); 10 μl plant extracts plants exposed to glyphosate and control plants; eluted in n-butanol: acetic acid: water (4:1:5) (upper phase after 5 minutes shaking). Derivatisation: 0,5 g p-anisaldehyde diluted in 10 ml conc. acetic acid and 85 ml absolute alcohol is and 5 ml conc. sulfuric acid (added in the following row). The plate is heated to. […]

The test system of assay [2] is Lólium perénne. The description is as above. The following applies: Roundup Bio; Lólium perénne. The protocol:
as §1, §2, §3, §4, §5, §6
(§7) TLC-System 1: HPTLC-Alufolie Silica Gel 60 F254, Merck 1.05548 (10×10 cm); 10 μl plant extracts plants exposed to glyphosate and control plants; eluted in n-butanol acetic acid: water (4:1:5) (upper phase after 5 minutes shaking). Derivatisation: Stock solution 1:50% sulfuric acid in 96% ethanol; Stock solution 2: 2% vanillin in absolut alcohol; Derivatisation-solvent, Fresh produced before us, stock solution 1 and stock solution 2 (1:10); Aftercare: 120° C. in 2-3 min. The plate is valuated visually. The system detects higher alcoholics, phenolic compounds, steroids and etheric oils (Stahl 1969), terpenoids, phenyl propanolds, phenolic compounds (Wagner etea. 1984) […]

The subject of assay [3] is Plantágo lanceoláta. The description is as above. The protocol:
as §1, §2, §3, §4, §5, §6, §7

Assay [4] concerns Anagallis arvensis. The assay can be described thus: Visual effect rating (0-9) after herbicide spraying. The following applies: Roundup Bio, Anagallis arvensis. From the text: (§8) Four, eight, sixteen and thirty two days after spraying, visual effects on plants were noted before harvest, using the rating chart described in Hamil. et al. (1977) and Boutin et al. (1993); a rating of zero indicates full growth and vigour, and a rating of nine indicates no growth/mortality.
(§9) The min. visual effect (VE) of the presence of plant biomarkers is rated as described by Hamil et al., (1977) and Boutin et al. (1993).

In another assay the test system is Centauréa cýanus. The description is as above.
From the text: as §8, §9

The subject of assay [5] is Lólium perénne. The assay is described as above. The following applies: Roundup Bio, Lólium perénne.
From the text: as §8, §9

Assay [6] deals with Plantágo lanceoláta. The description is as above.
From the text: as §8, §9

Take `O=C(O)CNCP(=O)(O)O` [Glyphosate]: the “LC: lowest dose of concentration of the herbicide with phytochemical changes in all the TLC-Systems” value is recorded as 1% of field dose in the assay on Anagallis arvensis [1] (Roundup Bio, Anagallis arvensis); 1% of field dose with Lólium perénne [2]; 1% of field dose in the assay on Plantágo lanceoláta [3] (Roundup Bio, Plantágo lanceoláta). Moreover, the “Min. of label dose of herbicide with effect” value is listed as 1% in the assay on Anagallis arvensis [1] (TLC 1 (non-specific compounds)); 1% in the assay with Anagallis arvensis [1] (TLC 6 (lipids and terpens)); 1% in the assay on Anagallis arvensis [1] (TLC 4d (amino acids)); 1% with Plantágo lanceoláta [3] (TLC 1 (non-specific compounds)); 1% with Plantágo lanceoláta [3] (TLC 2 (phenolic compounds)); 1% in the assay on Plantágo lanceoláta [3] (TLC 6 (lipids and terpens)). For the same molecule, the “Min. of label dose of herbicide with effect” value in the assay with Plantágo lanceoláta [3] (TLC 7 (non-specific compounds)) and in the assay on Plantágo lanceoláta [3] (TLC 4d (amino acids)) was 1% throughout. The “VE: corresponding visual effect” value with Anagallis arvensis [4] and with Lólium perénne [5] was 0 each time. For the same molecule, the Min. visual effect with Centauréa cýanus (at presence of TLC 1 biomarker) is 3; in the assay on Centauréa cýanus (at presence of TLC 6 biomarker) it was 3; in the assay with Centauréa cýanus (at presence of TLC 7 biomarker), 3; in the assay with Plantágo lanceoláta [6] (at presence of TLC 1 biomarker), 0; with Plantágo lanceoláta [6] (at presence of TLC 6 biomarker), 4.
